Experimental data as given in PubChem BioAssay (NCI).
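GI50 = concentration required for 50% inhibition of growth. TGI marks complete inhibition of growth.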

Experiments:
Assay in all cases: NCI anticancer screen, dose series, 384-well format
[1] = tested on: MALME-3M melanoma
[2] = tested on: K-562 leukemia
[3] = tested on: U251 glioblastoma
[4] = tested on: OVCAR-3 ovarian
[5] = tested on: MOLT-4 leukemia
[6] = tested on: IGROV1 ovarian
[7] = tested on: SF-268 CNS
[8] = tested on: SR leukemia
[9] = tested on: HOP-62 NSCLC
[10] = tested on: MDA-MB-231 breast
[11] = tested on: NCI-H460 NSCLC
[12] = tested on: DU-145 prostate
[13] = tested on: SNB-19 CNS
[14] = tested on: UO-31 renal
[15] = tested on: PC-3 prostate
[16] = tested on: NCI-H23 lung
[17] = tested on: RPMI-8226 leukemia
[18] = tested on: M14 melanoma
[19] = tested on: RXF 393 renal
[20] = tested on: HCC-2998 colon
[21] = tested on: BT-549 breast
[22] = tested on: SF-539 CNS
[23] = tested on: 786-0 renal
[24] = tested on: COLO 205 colon
[25] = tested on: HT29 colon
[26] = tested on: SN12C renal
[27] = tested on: SF-295 CNS
[28] = tested on: HOP-92 NSCLC
[29] = tested on: SK-MEL-28 melanoma
[30] = tested on: NCI/ADR-RES ovarian
[31] = tested on: T-47D breast
[32] = tested on: CAKI-1 renal
[33] = tested on: A498 renal
[34] = tested on: OVCAR-4 ovarian
[35] = tested on: HL-60(TB) leukemia
[36] = tested on: TK-10 renal
[37] = tested on: HCT-116 colon
[38] = tested on: NCI-H226 lung
[39] = tested on: MDA-MB-468 breast
[40] = tested on: NCI-H322M lung
[41] = tested on: A549 NSCLC
[42] = tested on: SW-620 colon
[43] = tested on: SNB-75 CNS
[44] = tested on: HS 578T breast
[45] = tested on: KM12 colon
[46] = tested on: LOX IMVI melanoma
[47] = tested on: HCT-15 colon
[48] = tested on: ACHN renal
[49] = tested on: MCF7 breast
[50] = tested on: NCI-H522 lung
[51] = tested on: SK-OV-3 ovarian
[52] = tested on: SK-MEL-5 melanoma
[53] = tested on: CCRF-CEM leukemia
[54] = tested on: OVCAR-8 ovarian
[55] = tested on: UACC-62 melanoma
[56] = tested on: MDA-MB-435 melanoma
[57] = tested on: EKVX NSCLC
[58] = tested on: UACC-257 melanoma
[59] = tested on: OVCAR-5 ovarian

## Cc1ccc(NC(=O)c2cccc(C(C)(C)C#N)c2)cc1Nc1ccc2ncn(C)c(=O)c2c1
[1]
  TGI: 0.0178 µM
[2]
  GI50: 0.232 µM
  TGI: 1.06 µM
[3]
  GI50: 4.36 µM
  TGI: > 100 µM
[4]
  GI50: 3.22 µM
  TGI: > 100 µM
[5]
  GI50: 1.86 µM
  TGI: 6.08 µM
[6]
  GI50: 0.935 µM
  TGI: 7 µM
[7]
  GI50: 4.8 µM
  TGI: > 100 µM
[8]
  GI50: 0.153 µM
  TGI: 0.908 µM
[9]
  GI50: 1.8 µM
  TGI: > 100 µM
[10]
  GI50: 0.036 µM
  TGI: 27.3 µM
[11]
  GI50: 1.47 µM
  TGI: > 100 µM
[12]
  GI50: 3.63 µM
  TGI: > 100 µM
[13]
  GI50: 4.82 µM
  TGI: > 100 µM
[14]
  GI50: 0.527 µM
  TGI: 5.68 µM
[15]
  GI50: 8.34 µM
  TGI: > 100 µM
[16]
  GI50: 0.048 µM
  TGI: 1.43 µM
[17]
  GI50: 1.1 µM
  TGI: 3.33 µM
[18]
  GI50: 0.0119 µM
  TGI: 0.106 µM
[19]
  GI50: 5.05 µM
  TGI: > 100 µM
[20]
  GI50: 0.0525 µM
  TGI: 1.84 µM
[21]
  GI50: 6.99 µM
  TGI: > 100 µM
[22]
  GI50: 7.1 µM
  TGI: > 100 µM
[23]
  GI50: 4.85 µM
  TGI: > 100 µM
[24]
  GI50: 0.0246 µM
  TGI: 8.52 µM
[25]
  GI50: 0.0579 µM
  TGI: > 100 µM
[26]
  GI50: 0.698 µM
  TGI: > 100 µM
[27]
  GI50: 4.63 µM
  TGI: > 100 µM
[28]
  GI50: 0.593 µM
  TGI: 2.55 µM
[29]
  GI50: 0.0122 µM
  TGI: 0.0749 µM
[30]
  GI50: 3.06 µM
  TGI: 14.1 µM
[31]
  GI50: 4.42 µM
  TGI: > 100 µM
[32]
  GI50: 0.343 µM
  TGI: > 100 µM
[33]
  GI50: 5.55 µM
  TGI: > 100 µM
[34]
  GI50: 5.43 µM
  TGI: > 100 µM
[35]
  GI50: 0.0135 µM
  TGI: 0.148 µM
[36]
  GI50: 2.92 µM
  TGI: 60.6 µM
[37]
  GI50: 0.136 µM
  TGI: 13.4 µM
[38]
  GI50: 2.01 µM
  TGI: > 100 µM
[39]
  GI50: 3.53 µM
  TGI: 44.1 µM
[40]
  GI50: 2.62 µM
  TGI: > 100 µM
[41]
  GI50: 3.11 µM
  TGI: > 100 µM
[42]
  GI50: 0.798 µM
  TGI: > 100 µM
[43]
  GI50: 7.19 µM
  TGI: > 100 µM
[44]
  GI50: 1.92 µM
  TGI: 9.66 µM
[45]
  GI50: 0.803 µM
  TGI: > 100 µM
[46]
  GI50: 0.0358 µM
  TGI: 1.34 µM
[47]
  GI50: 2.91 µM
  TGI: > 100 µM
[48]
  GI50: 2.22 µM
  TGI: > 100 µM
[49]
  GI50: 5.97 µM
  TGI: > 100 µM
[50]
  GI50: 4.09 µM
  TGI: > 100 µM
[51]
  GI50: 4.9 µM
  TGI: > 100 µM
[52]
  GI50: 0.0419 µM
  TGI: 1.78 µM
[53]
  GI50: 2.19 µM
  TGI: 9.99 µM
[54]
  GI50: 2.85 µM
  TGI: > 100 µM
[55]
  GI50: 0.0105 µM
  TGI: 0.13 µM
[56]
  GI50: 0.0617 µM
  TGI: > 100 µM
[57]
  GI50: 6.79 µM
  TGI: > 100 µM

## Cc1cc2ncnn2cc1Nc1ncc2c(n1)n(C1CCOCC1)c(=O)n2C
[1]
  GI50: 4.21 µM
  TGI: 61.9 µM
[2]
  GI50: > 100 µM
  TGI: > 100 µM
[4]
  GI50: 14.5 µM
  TGI: > 100 µM
[5]
  GI50: 5.53 µM
  TGI: 33.8 µM
[6]
  GI50: 4.91 µM
  TGI: 32.9 µM
[7]
  GI50: > 100 µM
  TGI: > 100 µM
[58]
  GI50: > 100 µM
  TGI: > 100 µM
[8]
  GI50: 4.11 µM
  TGI: > 100 µM
[9]
  GI50: 22.2 µM
  TGI: > 100 µM
[10]
  GI50: 7.65 µM
  TGI: > 100 µM
[11]
  GI50: 4.88 µM
  TGI: > 100 µM
[12]
  GI50: 28.8 µM
  TGI: > 100 µM
[13]
  GI50: > 100 µM
  TGI: > 100 µM
[14]
  GI50: > 100 µM
  TGI: > 100 µM
[15]
  GI50: 8.76 µM
  TGI: > 100 µM
[16]
  GI50: 26.5 µM
  TGI: > 100 µM
[17]
  GI50: 1.44 µM
  TGI: 3.98 µM
[18]
  GI50: 19.3 µM
  TGI: > 100 µM
[19]
  GI50: 49.6 µM
  TGI: > 100 µM
[20]
  GI50: 38.2 µM
  TGI: > 100 µM
[21]
  GI50: 24.2 µM
  TGI: > 100 µM
[22]
  GI50: 58.2 µM
  TGI: > 100 µM
[59]
  GI50: 11.9 µM
  TGI: > 100 µM
[23]
  GI50: 36.4 µM
  TGI: > 100 µM
[24]
  GI50: 17.1 µM
  TGI: > 100 µM
[25]
  GI50: 32.9 µM
  TGI: > 100 µM
[26]
  GI50: 10.4 µM
  TGI: > 100 µM
[27]
  GI50: 6.33 µM
  TGI: > 100 µM
[28]
  GI50: 6.69 µM
  TGI: > 100 µM
[29]
  GI50: 22.4 µM
  TGI: > 100 µM
[30]
  GI50: > 100 µM
  TGI: > 100 µM
[31]
  GI50: 1.7 µM
  TGI: 7.63 µM
[32]
  GI50: 16.5 µM
  TGI: > 100 µM
[33]
  GI50: 2.66 µM
  TGI: 31.3 µM
[34]
  GI50: 8.13 µM
  TGI: > 100 µM
[35]
  GI50: 35.2 µM
  TGI: > 100 µM
[36]
  GI50: 74.7 µM
  TGI: > 100 µM
[38]
  GI50: 10.5 µM
  TGI: > 100 µM
[39]
  GI50: 5.36 µM
  TGI: 52.7 µM
[40]
  GI50: 18.8 µM
  TGI: > 100 µM
[41]
  GI50: 12.1 µM
  TGI: > 100 µM
[42]
  GI50: > 100 µM
  TGI: > 100 µM
[43]
  GI50: 6.38 µM
  TGI: > 100 µM
[44]
  GI50: 4.78 µM
  TGI: 37.9 µM
[45]
  GI50: 18 µM
  TGI: > 100 µM
[46]
  GI50: 14.4 µM
  TGI: > 100 µM
[47]
  GI50: 12 µM
  TGI: > 100 µM
[48]
  GI50: 21.5 µM
  TGI: > 100 µM
[49]
  GI50: 4.64 µM
  TGI: > 100 µM
[50]
  GI50: 9.5 µM
  TGI: > 100 µM
[51]
  GI50: 6.16 µM
  TGI: > 100 µM
[52]
  GI50: 15.5 µM
  TGI: > 100 µM
[53]
  GI50: 3.21 µM
  TGI: 17.5 µM
[54]
  GI50: 50.5 µM
  TGI: > 100 µM
[55]
  GI50: 21.2 µM
  TGI: > 100 µM
[56]
  GI50: 41.4 µM
  TGI: > 100 µM
[57]
  GI50: 15.6 µM
  TGI: > 100 µM
